According to PubChem BioAssay AID1259411 (Chemical Carcinogenesis Research Information System (CCRIS), 2018):
Calls of active or inactive are those of the source. How the calls were made is not given here.

Tested on: rodent carcinogenicity bioassays, tumor incidence
Assay: CCRIS carcinogenicity studies
Method in brief: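 NCI-built, expert-reviewed records of carcinogenicity and related test outcomes (mutagenicity, tumor promotion/inhibition) compiled from published and report sources, historical span 1985-2011, not updated.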

Q: `O=Nc1ccc(NO)cc1` was tested. Which carcinogen call (Species: MOUSE, Strain/Sex: B6C3F1/FEMALE, Route: ORAL, Dose: 0, 750, 1500 PPM IN DIET FOR 104 WK (STUDY DURATION: 105 WK), Dose: 0, 750, 1500 PPM IN DIET FOR 104 WK (STUDY DURATION: 105 WK)) did it give?
A: inactive; negative

Q: What about the carcinogen call (Species: MOUSE, Strain/Sex: B6C3F1/MALE, Route: ORAL, Dose: 0, 750, 1500 PPM IN DIET FOR 104 WK (STUDY DURATION: 105 WK), Dose: 0, 750, 1500 PPM IN DIET FOR 104 WK (STUDY DURATION: 105 WK)) of the same molecule?
A: inactive; negative

Q: And the carcinogen call (Species: RAT, Strain/Sex: F344/FEMALE, Route: ORAL, Dose: 0, 375, 750 PPM IN DIET FOR 104 WK (STUDY DURATION: 105 WK), Dose: 0, 375, 750 PPM IN DIET FOR 104 WK (STUDY DURATION: 105 WK), Tumor Site: Type of Lesion: URINARY BLADDER: TRANSITIONAL CELL CARCINOMA, TRANSITIONAL CELL PAPILLOMA OR SQUAMOUS CELL CARCINOMA)?
A: active; positive

Q: What about the carcinogen call (Species: RAT, Strain/Sex: F344/MALE, Route: ORAL, Dose: 0, 375, 750 PPM IN DIET FOR 104 WK (STUDY DURATION: 105 WK), Dose: 0, 375, 750 PPM IN DIET FOR 104 WK (STUDY DURATION: 105 WK)) of the same molecule?
A: inactive; negative

Q: With `CC(O)CNC(=O)N(CCCl)N=O` (stereo not given) as the molecule, how does the carcinogen call (Species: RAT, Strain/Sex: F344/FEMALE, Route: ORAL, Dose: 0, 18 MG/L IN DRINKING WATER 5 D/WK FOR 30 WK (STUDY DURATION: LIFETIME)) read?
A: inactive; negative

Q: What about the carcinogen call (Species: RAT, Strain/Sex: F344/MALE, Route: ORAL, Dose: 0, 18 MG/L IN DRINKING WATER 5 D/WK FOR 30 WK (STUDY DURATION: LIFETIME), Tumor Site: Type of Lesion: LIVER: TUMOR, LUNG: TUMOR) of the same molecule?
A: active; positive

Q: Which carcinogen call (Species: GUPPIE, Strain/Sex: FEMALE, Route: AQUARIUM WATER, Dose: 0, 10, 30, 70 MG/L FOR 16 MO (STUDY DURATION: 16 MO), Dose: 0, 10, 30, 70 MG/L FOR 16 MO (STUDY DURATION: 16 MO)) does the source give for `C[N+](=O)[O-]` here?
A: inactive; negative

Q: What about the carcinogen call (Species: MEDAKA, Strain/Sex: FEMALE, Route: AQUARIUM WATER, Dose: 0, 10, 20, 40 MG/L FOR 13 MO (STUDY DURATION: 13 MO), Dose: 0, 10, 20, 40 MG/L FOR 13 MO (STUDY DURATION: 13 MO)) of the same molecule?
A: inactive; negative

Q: What about the carcinogen call (Species: MEDAKA, Strain/Sex: MALE, Route: AQUARIUM WATER, Dose: 0, 10, 20, 40 MG/L FOR 13 MO (STUDY DURATION: 13 MO), Dose: 0, 10, 20, 40 MG/L FOR 13 MO (STUDY DURATION: 13 MO)) of the same molecule?
A: inactive; negative

Q: What about the carcinogen call (Species: MOUSE, Strain/Sex: B6C3F1/FEMALE, Route: INHALATION, Dose: 0, 188, 375, 750 PPM 6 HR/D 5 D/WK FOR 103 WK (STUDY DURATION: 105 WK), Dose: 0, 188, 375, 750 PPM 6 HR/D 5 D/WK FOR 103 WK (STUDY DURATION: 105 WK), Tumor Site: Type of Lesion: HARDERIAN GLAND: ADENOMA, LIVER: HEPATOCELLULAR ADENOMA, LUNG: ALVEOLAR/BRONCHIOLAR ADENOMA, ALVEOLAR/BRONCHIOLAR CARCIN, Tumor Site: Type of Lesion: HARDERIAN GLAND: ADENOMA, LIVER: HEPATOCELLULAR ADENOMA, LUNG: ALVEOLAR/BRONCHIOLAR ADENOMA, ALVEOLAR/BRONCHIOLAR CARCIN) of the same molecule?
A: active; positive

Q: What about the carcinogen call (Species: MOUSE, Strain/Sex: B6C3F1/MALE, Route: INHALATION, Dose: 0, 188, 375, 750 PPM 6 HR/D 5 D/WK FOR 103 WK (STUDY DURATION: 105 WK), Dose: 0, 188, 375, 750 PPM 6 HR/D 5 D/WK FOR 103 WK (STUDY DURATION: 105 WK), Tumor Site: Type of Lesion: HARDERIAN GLAND: CARCINOMA, ADENOMA, LUNG: ALVEOLAR/BRONCHIOLAR CARCINOMA) of the same molecule?
A: active; positive

Q: What about the carcinogen call (Species: RAT, Strain/Sex: F344/FEMALE, Route: INHALATION, Dose: 0, 94, 188, 375 PPM 6 HR/D 5 D/WK FOR 103 WK (STUDY DURATION: 104 WK), Dose: 0, 94, 188, 375 PPM 6 HR/D 5 D/WK FOR 103 WK (STUDY DURATION: 104 WK), Tumor Site: Type of Lesion: MAMMARY GLAND: FIBROADENOMA, CARCINOMA) of the same molecule?
A: active; positive

Q: And the carcinogen call (Species: RAT, Strain/Sex: F344/MALE, Route: INHALATION, Dose: 0, 94, 188, 375 PPM 6 HR/D 5 D/WK FOR 103 WK (STUDY DURATION: 104 WK), Dose: 0, 94, 188, 375 PPM 6 HR/D 5 D/WK FOR 103 WK (STUDY DURATION: 104 WK))?
A: inactive; negative

Q: And the carcinogen call (Species: RAT, Strain/Sex: LONG-EVANS/FEMALE, Route: INHALATION, Dose: 0, 100, 200 PPM 7 HR/D 5 D/WK FOR 2 YR (STUDY DURATION: 2 YR), Dose: 0, 100, 200 PPM 7 HR/D 5 D/WK FOR 2 YR (STUDY DURATION: 2 YR))?
A: inactive; negative

Q: What about the carcinogen call (Species: RAT, Strain/Sex: LONG-EVANS/MALE, Route: INHALATION, Dose: 0, 100, 200 PPM 7 HR/D 5 D/WK FOR 2 YR (STUDY DURATION: 2 YR), Dose: 0, 100, 200 PPM 7 HR/D 5 D/WK FOR 2 YR (STUDY DURATION: 2 YR)) of the same molecule?
A: inactive; negative

Q: With `C[C@]12C=CC(=O)C=C1CC[C@@H]1[C@@H]2[C@@H](O)C[C@@]2(C)[C@H]1CC[C@]2(O)C(=O)COC(=O)CCCc1ccc(N(CCCl)CCCl)cc1` as the molecule, how does the carcinogen call (Species: RAT, Strain/Sex: SPRAGUE-DAWLEY/FEMALE, Route: GAVAGE, Dose: 0, 12 MG/KG ADMINISTERED 1, 2, 4.5 OR 9 TIMES PER MO FOR 18 MO TO GIVE MEDIAN TOTAL DOSES OF 216, 432, 938, 1872 MG/KG (, Dose: 0, 12 MG/KG ADMINISTERED 1, 2, 4.5 OR 9 TIMES PER MO FOR 18 MO TO GIVE MEDIAN TOTAL DOSES OF 216, 432, 938, 1872 MG/KG (, Tumor Site: Type of Lesion: EAR CANAL: SQUAMOUS-CELL CARCINOMA) read?
A: active; positive

Q: What does the source list for `c1ccc2c(c1)ccc1[nH]c3ccc4ccccc4c3c12`?
A: carcinogen call (Species: HAMSTER, Route: INTRATRACHEAL, Tumor Site: Type of Lesion: LUNG): active; positive; carcinogen call (Species: MOUSE, Route: DERMAL, Tumor Site: Type of Lesion: INTEGUMENTARY SYSTEM (SKIN), LIVER): active; positive; carcinogen call (Species: MOUSE, Route: INTRAVENOUS, Tumor Site: Type of Lesion: LUNG): active; positive; carcinogen call (Species: MOUSE, Route: ORAL, Tumor Site: Type of Lesion: FORESTOMACH, LIVER, LUNG, Tumor Site: Type of Lesion: FORESTOMACH, LIVER, LUNG): active; positive; carcinogen call (Species: MOUSE, Route: SUBCUTANEOUS, Tumor Site: Type of Lesion: INJECTION SITE, LUNG): active; positive; carcinogen call (Species: MOUSE, Strain/Sex: HSD:ICR(BR)/FEMALE, Route: DERMAL, Dose: 0, 50 NMOL IN 50 µL ACETONE 2/WK FOR 99 WK (STUDY DURATION: 99 WK), Tumor Site: Type of Lesion: SKIN: TUMOR, LIVER: TUMOR): active; positive; carcinogen call (Species: MOUSE, Strain/Sex: STRAIN-A/MALE, Route: INTRAPERITONEAL, Dose: 0, 5, 10, 20, 40 MG/KG BW IN 0.2 ML TRICAPRYLIN ONCE (STUDY DURATION: 8 MO), Dose: 0, 5, 10, 20, 40 MG/KG BW IN 0.2 ML TRICAPRYLIN ONCE (STUDY DURATION: 8 MO), Tumor Site: Type of Lesion: LUNG: ADENOMA): active; positive; carcinogen call (Species: Mouse, Strain/Sex: XVIInc/Z homozygous/Female (50 or 162/Group), Route: Subcutaneous, Dose: 3 x 0.3 mg (162 animals) or 34 x 0.05 mg (50 animals) dissolved in olive oil, Tumor Site: Type of Lesion: Liver: Hepatoma (100%), Sarcoma (70%)): active; positive (historical controls only; reported incidence of liver tumors <2% at 2

Q: With `Nc1nc(=S)c2ncn([C@H]3C[C@H](O)[C@@H](CO)O3)c2[nH]1` as the molecule, how does the carcinogen call (Species: RAT, Strain/Sex: SPRAGUE-DAWLEY/FEMALE, Route: INTRAPERITONEAL, Dose: 0, 3.5, 7 MG/KG FOR 52 WK (STUDY DURATION: 78 WK), Dose: 0, 3.5, 7 MG/KG FOR 52 WK (STUDY DURATION: 78 WK), Tumor Site: Type of Lesion: EAR (CANAL): CARCINOMA, NOS OR SQUAMOUS CELL CARCINOMA) read?
A: active; positive

Q: And the carcinogen call (Species: RAT, Strain/Sex: SPRAGUE-DAWLEY/MALE, Route: INTRAPERITONEAL, Dose: 0, 3.5, 7 MG/KG FOR 52 WK (STUDY DURATION: 78 WK), Dose: 0, 3.5, 7 MG/KG FOR 52 WK (STUDY DURATION: 78 WK), Tumor Site: Type of Lesion: EAR (CANAL): CARCINOMA OR SQUAMOUS CELL CARCINOMA)?
A: equivocal

Q: With `Cc1cccc(C)c1NC(=O)CN1CCCC1=O` as the molecule, how does the carcinogen call (Species: MOUSE, Strain/Sex: B6C3F1/FEMALE, Route: ORAL, Dose: 0, 30, 90, 270 MG/KG/D IN DIET FOR 104 WK (STUDY DURATION: 104 WK), Dose: 0, 30, 90, 270 MG/KG/D IN DIET FOR 104 WK (STUDY DURATION: 104 WK)) read?
A: inactive; negative

Q: What about the carcinogen call (Species: MOUSE, Strain/Sex: B6C3F1/MALE, Route: ORAL, Dose: 0, 30, 90, 270 MG/KG/D IN DIET FOR 104 WK (STUDY DURATION: 104 WK), Dose: 0, 30, 90, 270 MG/KG/D IN DIET FOR 104 WK (STUDY DURATION: 104 WK)) of the same molecule?
A: inactive; negative

Q: And the carcinogen call (Species: RAT, Strain/Sex: F344/FEMALE, Route: ORAL, Dose: 0, 200, 600, 1800 PPM IN DIET FOR 104 WK (STUDY DURATION: 104 WK), Dose: 0, 200, 600, 1800 PPM IN DIET FOR 104 WK (STUDY DURATION: 104 WK))?
A: inactive; negative

Q: And the carcinogen call (Species: RAT, Strain/Sex: F344/MALE, Route: ORAL, Dose: 0, 200, 600, 1800 PPM IN DIET FOR 104 WK (STUDY DURATION: 104 WK), Dose: 0, 200, 600, 1800 PPM IN DIET FOR 104 WK (STUDY DURATION: 104 WK))?
A: inactive; negative
